We go through 50 molecules from the Deep4Chem optical property database.

Values joined by “and” are separate entries in the source; they are usually repeats but may differ in a detail not shown here. Identical values can stand only once.

A short description of the data set: solvent given as SMILES.

`COc1ccc2c3c(cccc13)C(=O)c1ccccc1-2`: the fluorescence lifetime was found to be 13.2 ns (in CC#N); 10.5 ns (in CC(C)=O); 12.7 ns (in CC(C)O); 0.6 ns (in CCCCOCCCC); 4.1 ns (in CCOC(C)=O); 0.9 ns (in CCOCC). In addition, the fluorescence lifetime reads like this: (in CO) 12.6 ns; (in Cc1ccccc1) 1.4 ns; (in Clc1ccccc1) 6 ns; (in N#Cc1ccccc1) 14.1 ns; (in O=C1CCCCC1) 7.8 ns.

With `CC1(C)C(/C=C/C2=C(Cl)C(=C/C=C3/N(CCCS(=O)(=O)[O-])c4ccccc4C3(C)C)/CCC2)=[N+](CCCS(=O)(=O)[O-])c2ccccc21`, for the setting “in CO”, the fluorescence lifetime is 0.529 ns.

As for `C[Si](C)(C)c1cccc2c(C#N)cccc12`, the fluorescence lifetime (in C1CCCCC1) was 8 ns.

With `c1ccc(/C(=C(\c2ccccc2)c2ccccc2-c2ccc(-c3ccccc3)cc2)c2ccccc2-c2ccc(-c3ccccc3)cc2)cc1`, under “in C1CCOC1”, the fluorescence lifetime was determined as 7 ns.

Molecule `COc1cc(/C=C/c2ccccc2)cc(OC)c1` registered a fluorescence lifetime (in CC#N) of 16.9 ns.

Molecule `CC(C)(C)NC(=O)c1ccc2ccc3cccc4c3c2c1c1c2ccccc2c2ccccc2c41` showed a fluorescence lifetime (in ClCCl) of 11.9 ns.

Turning to `CC1(C)c2ccccc2N(c2ccccc2)c2ccc(-c3ccc(C(=O)c4ccc(-c5ccc6c(c5)C(C)(C)c5ccccc5N6c5ccccc5)cc4)cc3)cc21`, the fluorescence lifetime (in O=P(c1ccccc1)(c1ccccc1)c1ccccc1Oc1ccccc1P(=O)(c1ccccc1)c1ccccc1) was 1.87 ns.

Molecule `CN(C)c1ccc2cc3ccc(N(C)C)cc3nc2c1` came in with a fluorescence lifetime (in O) of 2 ns.

As for `c1cc2c3c(c1)OCCCCCCCOc1cccc(c1-c1c4ccccc4c-3c3ccccc13)OCCCCCCCO2`, the fluorescence lifetime (in C1CCCCC1) is 8.18 ns.

On to `CC(=O)c1ccc(-c2cnc3nn4ccccc4c3n2)cc1`, for which the fluorescence lifetime (in C1CCOC1) is 5.1 ns.

With `COc1ccc(-c2nc(C)cc(-c3ccc(-n4c5ccccc5c5ccccc54)cc3)n2)cc1`, the fluorescence lifetime is 3.76 ns (in C1CCOC1), 6.51 ns (in CN(C)C=O), 1.87 ns (in Cc1ccccc1) and 3.91 ns (in ClC(Cl)Cl).

Molecule `Cc1cc(C)c(C)c(B(c2c(C)c(C)c(N3c4ccccc4Oc4ccccc43)c(C)c2C)c2c(C)c(C)c(N3c4ccccc4Oc4ccccc43)c(C)c2C)c1C` returned a fluorescence lifetime (in CC(C)(C)c1ccc(-n2c3ccc([Si](c4ccccc4)(c4ccccc4)c4ccccc4)cc3c3cc([Si](c4ccccc4)(c4ccccc4)c4ccccc4)ccc32)cc1) of 2.9 ns.

With `COC(=O)c1cc2c(cc3ccc4cccc5ccc2c3c45)[nH]1`, the fluorescence lifetime (in C1CCOC1) amounted to 2.29 ns.

Consider `CCN(CC)c1ccc(-c2nc3c(c4c2-c2ccccc2CC4)-c2ccccc2CC3)cc1`, for which the fluorescence lifetime is, setting by setting: (in C1CCOC1) 1.06 ns; (in CC#N) 0.68 ns; (in CCOC(C)=O) 0.85 ns; (in CO) 0.68 ns; (in CS(C)=O) 1.02 ns; (in Cc1ccccc1) 0.8 ns. The molecule further yielded a fluorescence lifetime (in ClCCl) of 1.22 ns.

In the case of `CN(C)c1ccc(/C=C/c2nc3c(ccc4ccccc43)s2)cc1`, the fluorescence lifetime is 0.1 ns and 0.13 ns (in C1CCCCC1); 0.1 ns and 0.13 ns (in CC#N).

Molecule `O=c1oc2ccccc2cc1-c1ccc(-c2cc3ccccc3oc2=O)cc1` gave a fluorescence lifetime (in ClC(Cl)Cl) of 1.4 ns.

With `CC1(C)CC(/N=C/c2ccc3ccc4cccc5ccc2c3c45)CC(C)(C)N1`, the fluorescence lifetime is, setting by setting: (in C1CCCCC1) 7.3 ns; (in CC#N) 2.9 ns; (in CO) 2.6 ns; (in ClC(Cl)Cl) 0.3 ns.

`Fc1c(F)c(-n2c3ccccc3c3ccccc32)c(F)c(-n2c3ccccc3c3ccccc32)c1-c1nnc(-c2ccccc2)o1`: the fluorescence lifetime (in Cc1ccccc1) was 4.8 ns.

As to `CN(C)c1ccc(-c2nc3c(c4c2-c2ccc(C#N)cc2CC4)-c2ccc(C#N)cc2CC3)cc1`, the fluorescence lifetime was 2.93 ns (in C1CCOC1); 3.56 ns (in CC#N); 0.6 ns (in CCCCCC); 2.55 ns (in CCOC(C)=O); 1.13 ns (in CO); 1.79 ns (in CS(C)=O). Moreover, the fluorescence lifetime stood at 1.4 ns (in Cc1ccccc1) and 1.68 ns (in ClCCl).

For `CC1(C)c2ccccc2-c2ccc(N3c4ccc(-c5ccc(/C=C6\C(=O)c7ccc(C(=O)O)cc7C6=O)s5)cc4C4CCCC43)cc21` (centres undefined), the fluorescence lifetime (in ClC(Cl)Cl) was 1.04 ns.

As to `c1ccc2c(c1)[nH]c1ncccc12`, the fluorescence lifetime was 13.3 ns (in CC#N) and 9.1 ns (in CCCCCC).

On to `Cc1ccc2ccc3c(C)ccc4ccc1c2c43`, for which the fluorescence lifetime by setting is: (in CCCCCC) 54.7 ns; (in CO) 64.5 ns; (in ClCCl) 37.6 ns.

`CCC12C(=C3C(=C4c5ccccc5S(=O)(=O)C41CC)C(F)(F)C(F)(F)C3(F)F)c1ccccc1S2(=O)=O` (centres undefined) showed a fluorescence lifetime (in C1COCCO1) of 1.2 ns.

In turn, `CC1(C)c2cccc(-c3nc(-c4ccccc4)nc(-c4ccccc4)n3)c2Oc2c(N3c4ccccc4Sc4ccccc43)cccc21` returned a fluorescence lifetime (in Cc1ccccc1) of 2.8 ns.

`c1cc2ccc3ccc(OP4(Oc5ccc6ccc7cccc8ccc5c6c78)=NP(Oc5ccc6ccc7cccc8ccc5c6c78)(Oc5ccc6ccc7cccc8ccc5c6c78)=NP(Oc5ccc6ccc7cccc8ccc5c6c78)(Oc5ccc6ccc7cccc8ccc5c6c78)=N4)c4ccc(c1)c2c34` yielded a fluorescence lifetime (in ClCCl) of 2.5 ns.

As to `N#Cc1c(-n2c3ccc(-c4ccccc4)cc3c3cc(-c4ccccc4)ccc32)c(-n2c3ccc(-c4ccccc4)cc3c3cc(-c4ccccc4)ccc32)c(C#N)c(-n2c3ccc(-c4ccccc4)cc3c3cc(-c4ccccc4)ccc32)c1-n1c2ccc(-c3ccccc3)cc2c2cc(-c3ccccc3)ccc21`, the fluorescence lifetime (in Cc1ccccc1) came to 9 ns.

Consider `Cc1cc(-c2cccc3ccccc23)cc(C)[o+]1`, for which the fluorescence lifetime (in ClCCl) turned out to be 13.4 ns.

Where the note is “in Cc1ccccc1”, `COc1ccc(C2=CC(c3ccccc3)=[N+]3C2=Nc2c(-c4ccc(OC)cc4)cc(-c4ccccc4)n2[B-]3(F)F)cc1` had a fluorescence lifetime of 1.56 ns.

On to `CN1C(=CC2=C([O-])C(=CC3=[N+](C)c4ccccc4C3(C)C)C2=O)C(C)(C)c2cc(Cl)ccc21`, for which the fluorescence lifetime is 0.2 ns (in CO) and 1.05 ns (in ClC(Cl)Cl).

`CC1(C)C(/C=C/C2=C(Oc3ccc(CCN=C=S)cc3)C(=C/C=C3/N(CCCS(=O)(=O)[O-])c4ccccc4C3(C)C)/CCC2)=[N+](CCCS(=O)(=O)[O-])c2ccccc21` registered a fluorescence lifetime (in CO) of 0.873 ns.

`COc1ccc2c(c1)CCC1=C(C#Cc3cc4ccccc4c4ccccc34)O[B-](F)(F)[O+]=C12` returned a fluorescence lifetime (in ClCCl) of 1.33 ns.

As to `N#Cc1cc(N2c3ccccc3Oc3ccccc32)cc(N2c3ccccc3Oc3ccccc32)c1`, under “in Cc1ccccc1”, the fluorescence lifetime stood at 26.1 ns.

Take `COc1ccc2nc(/N=N/c3ccc(N(C)C)cc3)sc2c1`: the fluorescence lifetime (in CC#N) was found to be 4.92 ns and the fluorescence lifetime (in ClCCl) amounted to 4.98 ns.

For `COc1ccc(C2=C3C=CC(C)=[N+]3[B-](F)(F)n3c(C)ccc32)cc1`, the fluorescence lifetime runs as follows: (in C1CCCCC1) 2.87 ns; (in CC#N) 1.6 ns; (in CCOC(C)=O) 2.24 ns; (in CO) 1.87 ns; (in Cc1ccccc1) 3.35 ns; (in ClC(Cl)Cl) 3.28 ns.

With `c1cc2c3c(c1)-c1ccc4c5c(ccc(c15)B3c1ccc3c5c(ccc-2c15)CC3)CC4`, for the setting “in Cc1ccccc1”, the fluorescence lifetime worked out at 5.28 ns.

The molecule `CCOC(=O)c1ccc2c(c1)sc1c3ccc(C(=O)OCC)cc3sc21` had a fluorescence lifetime (in CCCO) of 0.35 ns.

For the molecule `CC[n+]1c(C=C2C(=O)C(C=C3N(C)c4ccccc4C3(C)C)=C2[O-])sc2ccccc21`, the fluorescence lifetime reads like this: (in CO) 0.24 ns; (in ClC(Cl)Cl) 1.95 ns.

As for `COC(=O)C(NC(=O)OC(C)(C)C)c1ccc2oc(-c3cc(OC)c(OC)c(OC)c3)nc2c1` (centres undefined), the fluorescence lifetime came out at 1.01 ns (in CC1CCCCC1), 1.2 ns (in CC#N) and 1.28 ns (in CO).

In turn, `CCOC(=O)CN1C(=O)C2=C(c3ccc(C#N)cc3)N(CC(=O)OCC)C(=O)C2=C1c1ccccc1` returned a fluorescence lifetime (in CC#N) of 5.78 ns, a fluorescence lifetime (in CS(C)=O) of 7.07 ns and a fluorescence lifetime (in Cc1ccccc1) of 4.24 ns.

In turn, `COC(=O)c1noc(-c2ccccc2)c1Cl` returned a fluorescence lifetime (in C1CCCCC1) of 0.67 ns.

In the case of `Cc1ccc(-c2ccc(-c3ccc(-c4ccc(C)cc4)cc3/C(=C(/c3ccccc3)c3cc(-c4ccc(C)cc4)ccc3-c3ccc(-c4ccc(C)cc4)cc3)c3ccccc3)cc2)cc1`, the fluorescence lifetime (in C1CCOC1) was determined as 8.6 ns.

Regarding `C(#Cc1ccc(-n2c3ccccc3c3ccccc32)cc1)c1ccc(-c2nc(-c3ccc(C#Cc4ccc(-n5c6ccccc6c6ccccc65)cc4)cc3)nc(-c3ccc(C#Cc4ccc(-n5c6ccccc6c6ccccc65)cc4)cc3)n2)cc1`, the fluorescence lifetime (in ClCCl) is 4.16 ns.

`CC(C)(C)c1ccc(C2=C(c3ccc(-n4c5ccc(C(C)(C)C)cc5c5cc(C(C)(C)C)ccc54)cc3)S(=O)(=O)c3c2sc(-c2ccc(-n4c5ccc(C(C)(C)C)cc5c5cc(C(C)(C)C)ccc54)cc2)c3-c2ccc(C(C)(C)C)cc2)cc1` had a fluorescence lifetime (in C1CCOC1) of 1.1 ns.

With `CCCCCCCCn1c(=O)c2cc3cc4cc5c(=O)n(CCCCCCCC)c(=O)c5cc4c(C#Cc4ccc(N(c5ccccc5)c5ccccc5)cc4)c3cc2c1=O`, the fluorescence lifetime (in ClC(Cl)Cl) turned out to be 4.2 ns.

For the molecule `CN(C)c1ccc(C(=Cc2ccc(/C=C(\C#N)c3ccccc3)cc2)c2ccc(N(C)C)cc2)cc1`, the fluorescence lifetime (in C1CCOC1) came out at 0.3 ns.

As for `F[B-]1(F)OC(c2ccc(Br)cc2)=Cc2ccc3ccccc3[n+]21`, the fluorescence lifetime (in ClC(Cl)Cl) is 1.21 ns.

The molecule `c1ccc(/C(=C(\c2ccccc2)c2cc(-c3ccc(-c4ccccc4)cc3)ccc2-c2ccc(-c3ccccc3)cc2)c2cc(-c3ccc(-c4ccccc4)cc3)ccc2-c2ccc(-c3ccccc3)cc2)cc1` returned a fluorescence lifetime (in C1CCOC1) of 8.2 ns.

`CC(=O)OCCOCCN1C(=O)c2cc(NCCOCCO)c3c4c(cc(NCCOCCO)c(c24)C1=O)C(=O)N(CCOCCOC(C)=O)C3=O`: the fluorescence lifetime runs as follows: (in CO) 8 ns; (in ClC(Cl)Cl) 9.6 ns; (in O) 4.4 ns.

`Cc1ccc2ccc3cccc4ccc1c2c34` came in with a fluorescence lifetime (in CCCCCC) of 67.8 ns, a fluorescence lifetime (in CO) of 132 ns and a fluorescence lifetime (in ClCCl) of 79.1 ns.

`COc1ccc(-c2csc(/C(C#N)=C/c3ccc(Cl)cc3Cl)n2)cc1` came in with a fluorescence lifetime (in CC#N) of 3.05 ns.
